The source made the active and inactive calls.
What was measured:
[1] = molecular target: C-X-C chemokine receptor type 4 (Homo sapiens, UniProt P61073); assay: SAR analysis of small molecule antagonists of the CXCR6 receptor using a CXCR4 receptor luminescent beta-arrestin counterscreen.; assay type: functional
[2] = molecular target: C-C chemokine receptor type 6 (Homo sapiens, UniProt P51684); assay: SAR analysis of small molecule antagonists of the CXCR6 receptor using a CCR6 receptor luminescent beta-arrestin counterscreen.; assay type: functional
[3] = Late stage assay provider results from the probe development effort to identify inhibitors of the Plasmodium falciparum M18 Aspartyl Aminopeptidase (M18AAP): radiolabel-based cell-based dose response assay to identify compounds that inhibit P. falciparum growth in RBCs, Set 2..; assay type: functional
[4] = molecular target: Protein disulfide-isomerase (Homo sapiens, UniProt P07237); assay: inhibition of PDI-mediated insulin reduction – biochemical, turbidity, dry powder samples, set 2, confirmation (AID 652146)
[5] = viability loss in HepG2 liver cells – cell-based, ATP luminescence, cherry-pick, set 6, cytotoxicity control, dose response (AID 1053125); assay type: functional
[6] = molecular target: Luciferin 4-monooxygenase (Photinus pyralis, UniProt P08659); assay: Counter Screen for Luciferase-based Assay Positives. [Related pubchem assays: 620, 618, 411 ]
HT-1080 = assay: HT1080 cell viability loss – fluorescence readout (AID 620); assay type: functional, cell-based; conditions: Homo sapiens
[7] = molecular target: Dual specificity tyrosine-phosphorylation-regulated kinase 1A (Rattus norvegicus, UniProt Q63470); assay type: biochemical, Homo sapiens
[8] = viability loss in HepG2 hepatoma cells – cell-based, ATP luminescence, cherry-pick, activator set 2, cytotoxicity control, dose response (AID 1053143); assay type: functional
Escherichia coli = assay: microbe, parasite or virus in culture
[9] = viability loss in HEK293T cells – cell-based, CellTiter-Glo luminescence, dry powder, set 6, cytotoxicity control, dose response (AID 651949); assay type: functional; conditions: HEK293
[10] = YAP1 overexpression rescue of CTGF inhibition – DLD1 cells, RT-qPCR, cherry-pick, mechanism study for YAP1 pathway inhibitor project, dose response (AID 1053127); assay type: functional, cell-based; conditions: DLD-1
[11] = CTGF mRNA reduction in DLD1 cells – cell-based, DLD1 colon cancer, RT-qPCR, cherry-pick, dose response (AID 1053122); assay type: functional; conditions: Cancer cell lines
[12] = suppression of HIF-dependent reporter luminescence – cell-based, dry powder samples, 2158-07, ARNT-TACC3 inhibitor project, dose response (AID 720561); assay type: functional

C-X-C chemokine receptor type 4, sequence (P61073 whole entry): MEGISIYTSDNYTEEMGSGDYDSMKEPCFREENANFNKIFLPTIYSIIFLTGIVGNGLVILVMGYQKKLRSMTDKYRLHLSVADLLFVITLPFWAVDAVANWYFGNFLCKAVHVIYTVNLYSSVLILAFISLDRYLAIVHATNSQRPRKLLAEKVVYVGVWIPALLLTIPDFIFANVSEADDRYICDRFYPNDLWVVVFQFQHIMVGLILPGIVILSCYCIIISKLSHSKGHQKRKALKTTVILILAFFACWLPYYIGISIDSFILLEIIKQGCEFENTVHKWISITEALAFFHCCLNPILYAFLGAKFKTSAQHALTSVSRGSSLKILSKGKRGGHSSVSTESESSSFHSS
Protein disulfide-isomerase, sequence (P07237 whole entry): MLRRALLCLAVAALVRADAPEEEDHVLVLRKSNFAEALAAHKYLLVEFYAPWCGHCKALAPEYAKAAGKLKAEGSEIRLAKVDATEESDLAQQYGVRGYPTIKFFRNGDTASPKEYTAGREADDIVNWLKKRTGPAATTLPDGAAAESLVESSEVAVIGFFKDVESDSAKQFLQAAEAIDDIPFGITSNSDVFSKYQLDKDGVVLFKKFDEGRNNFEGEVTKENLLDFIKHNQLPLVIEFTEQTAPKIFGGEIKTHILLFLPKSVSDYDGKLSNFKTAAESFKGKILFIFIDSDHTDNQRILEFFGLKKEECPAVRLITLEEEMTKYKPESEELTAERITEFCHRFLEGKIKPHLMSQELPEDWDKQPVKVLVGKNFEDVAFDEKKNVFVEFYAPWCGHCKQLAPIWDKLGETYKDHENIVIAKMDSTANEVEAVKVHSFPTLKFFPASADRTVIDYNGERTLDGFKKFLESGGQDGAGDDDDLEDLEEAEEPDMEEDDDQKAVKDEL
C-C chemokine receptor type 6, sequence (P51684 whole entry): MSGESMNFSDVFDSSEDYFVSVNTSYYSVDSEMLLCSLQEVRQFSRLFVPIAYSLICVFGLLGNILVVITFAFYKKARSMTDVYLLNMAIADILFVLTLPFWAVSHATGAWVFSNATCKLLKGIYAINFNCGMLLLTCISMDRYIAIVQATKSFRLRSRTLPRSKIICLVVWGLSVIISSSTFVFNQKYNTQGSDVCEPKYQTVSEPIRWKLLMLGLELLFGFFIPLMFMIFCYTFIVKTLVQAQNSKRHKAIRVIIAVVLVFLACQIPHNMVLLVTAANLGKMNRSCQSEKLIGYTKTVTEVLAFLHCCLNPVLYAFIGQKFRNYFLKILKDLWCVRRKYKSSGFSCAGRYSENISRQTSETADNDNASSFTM
Luciferin 4-monooxygenase, sequence (P08659 whole entry): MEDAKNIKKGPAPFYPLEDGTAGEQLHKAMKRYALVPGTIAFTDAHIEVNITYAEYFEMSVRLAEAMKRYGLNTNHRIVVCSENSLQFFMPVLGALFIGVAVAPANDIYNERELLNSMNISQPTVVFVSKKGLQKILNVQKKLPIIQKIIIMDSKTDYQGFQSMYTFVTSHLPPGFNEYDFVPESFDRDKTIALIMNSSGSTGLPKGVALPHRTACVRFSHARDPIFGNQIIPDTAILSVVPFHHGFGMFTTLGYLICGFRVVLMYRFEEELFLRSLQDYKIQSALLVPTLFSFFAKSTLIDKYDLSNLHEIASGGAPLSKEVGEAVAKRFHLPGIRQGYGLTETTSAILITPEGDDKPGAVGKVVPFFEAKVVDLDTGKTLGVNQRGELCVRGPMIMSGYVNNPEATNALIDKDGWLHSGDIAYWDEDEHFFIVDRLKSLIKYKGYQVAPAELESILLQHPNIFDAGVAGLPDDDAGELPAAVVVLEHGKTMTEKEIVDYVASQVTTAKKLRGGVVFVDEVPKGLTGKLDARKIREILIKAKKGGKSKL

## COc1cc(C(=O)NC2CC3CCCC(C2)N3CC(=O)Nc2ccc(F)cc2)cc(OC)c1OC (centres undefined)
[1]
  IC50: > 79 µM (inactive)
[2]
  IC50: > 79 µM (inactive)

## Oc1ccc(CCNc2ccnc3ccccc23)cc1O
[3]
  IC50: 3.9 µM (active)

## CCOC(=O)C1(CCOc2ccccc2)CCN(C(=O)c2ccc(O)c(Cl)c2)CC1
[4]
  AC50: 3 µM (active)

## CC(=O)/N=c1\c(C#N)cc2c(=O)n3ccccc3nc2n1CCCOC(C)C
[5]
  AC50: > 52 µM (inactive)

## Nc1ccc(C(=O)Nc2nc3ccccc3s2)cc1
[6]
  EC50: 0.32 µM (active)
HT-1080
  EC50: > 50 µM (not active)
[7]
  AC50: 4.15 µM (active)
[8]
  AC50: 26 µM (active)
Escherichia coli
  AC50: 47.5 µM (active)

## CN(Cc1ccccc1)c1nnc(-c2ccccc2)o1
[9]
  AC50: > 52 µM (inactive)

## CO[C@@H](CN(C)S(=O)(=O)c1ccc(C)cc1)[C@H](C)CN([C@H](C)CO)S(=O)(=O)c1cccc(Cl)c1
[10]
  AC50: 4.83 µM (active)
[11]
  AC50: 4.99 µM (active)

## O=C(Nc1nnc(C2=COCCO2)o1)c1ccc(S(=O)(=O)N2CCCCC2)cc1
[12]
  AC50: > 100 µM (inactive)

Reference: ChEMBL document CHEMBL1201862, “PubChem BioAssay data set” (2004)
